Converted amounts (≈) assume the structure as drawn.

One experiment concerns Burkholderia cenocepacia. Put plainly: MIC and MBC determination (CLSI, alamar blue), CF isolates.
Experiment [1] deals with Pseudomonas aeruginosa. The description is as above. The settings on record: Pseudomonas.
Experiment [2] deals with Stenotrophomonas maltophilia. Described as above.
Experiment [3] deals with Acinetobacter baumannii. Nature of the experiment: MIC and MBC determination (CLSI, alamar blue). Background: The colour change of resazurin is a common sign of viable cells or microbes.
Experiment [4] concerns Acinetobacter baumannii. Nature of the experiment: MIC determination, CLSI microdilution with alamar blue. It counts as cell-based. The following applies: A. baumannii (n = 5). A general note: Dilution methods test growth across graded concentrations, often in twofold steps.
In experiment [5] the test system is Stenotrophomonas maltophilia. Described as above. It counts as cell-based. The following applies: S. maltophilia (n = 5).
In experiment [6] the test system is H. influenzae clinical isolates. Nature of the experiment: MIC and MBC susceptibility assays (CLSI). The experiment is classed as cell-based, Haemophilus influenzae. The following applies: for MIC 50: Haemophilus influenzae, all H. influenzae strains of Table 6, control antibiotics.
For experiment [7], the system named is Pseudomonas aeruginosa. Nature of the experiment: MIC determination, CLSI microdilution with alamar blue. It counts as cell-based. The following applies: Pseudomonas aeruginosa (n = 5); nanoemulsions in the presence of 5 mM EDTA; in µg/mL.
The subject of experiment [8] is methicillin-resistant Staphylococcus aureus (MRSA) clinical isolates. Put plainly: MIC and MBC susceptibility assays (CLSI). It counts as cell-based. The following applies: for MIC50 (15): value at rank 15 of 29; for MIC50(26): value at rank 26 of 29.
The subject of experiment [9] is H. influenzae clinical isolates. The settings on record: ATCC H. influenzae 49247 quality control isolate; acceptable QC range; cited from earlier work.
The subject of experiment [10] is Pseudomonas, Burkholderia, Acinetobacter and Stenotrophomonas. Put plainly: MIC and MBC determination (CLSI, alamar blue), all strains of Example 8.
Where [11] appears, read: MBC analysis table, silver nitrate column.

In the case of `C[C@H]1COc2c(N3CCN(C)CC3)c(F)cc3c(=O)c(C(=O)O)cn1c23` [Levofloxacin], the “MIC 90” value in the experiment on Burkholderia cenocepacia (Burkholderia) is 8 µg/mL (≈ 22.1 µM); in the experiment on Burkholderia cenocepacia (Burkholderia cenocepacia), 8 µg/mL (≈ 22.1 µM); against Pseudomonas aeruginosa [1] it was 8 µg/mL (≈ 22.1 µM); in [2] (Stenotrophomonas), 8 µg/mL (≈ 22.1 µM); in the experiment on Acinetobacter baumannii [3] (Acinetobacter), greater than 16 µg/mL. In addition, the MIC 50 in the experiment on Burkholderia cenocepacia (Burkholderia cenocepacia) was 2 µg/mL (≈ 5.53 µM); in the experiment on Pseudomonas aeruginosa [1], 0.5 µg/mL (≈ 1.38 µM); in [2] (Stenotrophomonas) it was 2 µg/mL (≈ 5.53 µM); in the experiment with Acinetobacter baumannii [3] (Acinetobacter) it was 16 µg/mL (≈ 44.3 µM).

In the case of `O=C(O)CN(CCN(CC(=O)O)CC(=O)O)CC(=O)O` [EDTA, ethylenediaminetetraacetic acid], the “number of strains inhibited by EDTA alone” value in the experiment on Acinetobacter baumannii [4] stood at 3; in [5] it was 5. Also, the “EDTA concentration inhibiting growth of H. influenzae” value in [6] (EDTA alone) is no less than 2 mM.

Consider Gentamicin, for which the “MIC Range” value with Pseudomonas aeruginosa [7] was “<=2-4”.

In experiment [8] (clinical isolates of MRSA), `C[C@H]1c2cccc(O)c2C(O)=C2C(=O)[C@]3(O)C(O)=C(C(N)=O)C(=O)[C@@H](N(C)C)[C@@H]3[C@@H](O)[C@@H]21` [doxycyline, doxycycline] registered an MIC 90 of 4 µg/mL (≈ 9 µM).

Regarding `CN[C@H](CC(C)C)C(=O)N[C@H]1C(=O)N[C@@H](CC(N)=O)C(=O)N[C@H]2C(=O)N[C@H]3C(=O)N[C@H](C(=O)N[C@H](C(=O)O)c4cc(O)cc(O)c4-c4cc3ccc4O)[C@H](O)c3ccc(c(Cl)c3)Oc3cc2cc(c3O[C@@H]2O[C@H](CO)[C@@H](O)[C@H](O)[C@H]2O[C@H]2C[C@](C)(N)[C@H](O)[C@H](C)O2)Oc2ccc(cc2Cl)[C@H]1O` [Vanco], the “MIC50 (15)” value in [8] (MRSA clinical isolates) was found to be 1 µg/mL (≈ 0.69 µM).

As to `CC(C)(O/N=C(\C(=O)N[C@@H]1C(=O)N2C(C(=O)[O-])=C(C[n+]3ccccc3)CS[C@H]12)c1csc(N)n1)C(=O)O` [Ceftazidime], the “MIC 90” value with Burkholderia cenocepacia (Burkholderia) was 16 µg/mL (≈ 29.3 µM); against Burkholderia cenocepacia (Burkholderia cenocepacia), 16 µg/mL (≈ 29.3 µM); in experiment [2] (Stenotrophomonas), greater than 32 µg/mL; against Acinetobacter baumannii [3] (Acinetobacter), greater than 32 µg/mL. Moreover, the MIC 50 is 8 µg/mL (≈ 14.6 µM) in the experiment on Burkholderia cenocepacia (Burkholderia cenocepacia), greater than 32 µg/mL in [2] (Stenotrophomonas) and greater than 32 µg/mL against Acinetobacter baumannii [3] (Acinetobacter).

As to `CO/N=C(\C(=O)N[C@@H]1C(=O)N2C(C(=O)[O-])=C(C[N+]3(C)CCCC3)CS[C@H]12)c1csc(N)n1` [Cefepime], the “QC MIC range” value in experiment [9] is on record as “C (QC MIC range is 0.5-2) μg/ml”. Besides, the “MIC 90” value against Burkholderia cenocepacia (Burkholderia) was greater than 32 µg/mL; in the experiment on Burkholderia cenocepacia (Burkholderia cenocepacia), greater than 32 µg/mL; against Pseudomonas aeruginosa [1], 32 µg/mL (≈ 66.6 µM); in experiment [2] (Stenotrophomonas), greater than 32 µg/mL; in experiment [2] (Stenotrophomonas maltophilia), greater than 32 µg/mL; in the experiment on Acinetobacter baumannii [3] (Acinetobacter) it was greater than 32 µg/mL. The MIC 90 in the experiment with Acinetobacter baumannii [3] (Acinetobacter baumannii) was greater than 32 µg/mL; in [10], no less than 2 µg/mL. Moreover, the MIC 50 is 32 µg/mL (≈ 66.6 µM) in the experiment with Burkholderia cenocepacia (Burkholderia cenocepacia); 0.125 µg/mL (≈ 0.26 µM) in [6]; 2 µg/mL (≈ 4.16 µM) in the experiment on Pseudomonas aeruginosa [1]; greater than 32 µg/mL in [2] (Stenotrophomonas); 32 µg/mL (≈ 66.6 µM) in the experiment on Acinetobacter baumannii [3] (Acinetobacter); 32 µg/mL (≈ 66.6 µM) against Acinetobacter baumannii [3] (Acinetobacter baumannii). Moreover, in experiment [6], the “susceptibility of the majority of isolates by MIC90 values” is recorded as “susceptible”. The MBC in experiment [10] (read-out: MBC90) was greater than 32 µg/mL.

With `CO[C@@]1(NC(=O)Cc2cccs2)C(=O)N2C(C(=O)O)=C(COC(N)=O)CS[C@@H]21` [Cefoxitin], the “MIC 90” value is 256 µg/mL (≈ 599 µM) in the experiment with Burkholderia cenocepacia (Burkholderia), greater than 256 µg/mL in the experiment with Pseudomonas aeruginosa [1], greater than 256 µg/mL in experiment [2] (Stenotrophomonas) and greater than 256 µg/mL with Acinetobacter baumannii [3] (Acinetobacter). Moreover, the “MIC 50” value (with Pseudomonas aeruginosa [1]; in [2] (Stenotrophomonas); in the experiment with Acinetobacter baumannii [3] (Acinetobacter)) was greater than 256 µg/mL throughout.

Take `C[C@@H](O)[C@H]1C(=O)N2C(C(=O)O)=C(SCCN=CN)C[C@H]12` [Imipenem]: in experiment [2] (Stenotrophomonas), the “MIC 50” value was greater than 32 µg/mL. For the same molecule, the MIC 90 in experiment [10] was no less than 2 µg/mL.

Consider `CC[C@H]1OC(=O)[C@H](C)[C@@H](O[C@H]2C[C@@](C)(OC)[C@@H](O)[C@H](C)O2)[C@H](C)[C@@H](O[C@@H]2O[C@H](C)C[C@H](N(C)C)[C@H]2O)[C@](C)(O)C[C@@H](C)CN(C)[C@H](C)[C@@H](O)[C@]1(C)O` [Azi, azithromycin], for which, in experiment [9], the “QC MIC range” value is recorded as “A (QC MIC range is 1-4) μg/ml”. In experiment [6], the “susceptibility of the majority of isolates by MIC90 values” is listed as “susceptible” and the MIC 50 turned out to be 2 µg/mL (≈ 2.67 µM).

As for `CCC[C@@H]1C[C@@H](C(=O)N[C@@H]([C@H]2O[C@H](SC)[C@H](O)[C@@H](O)[C@H]2O)[C@H](C)Cl)N(C)C1` [Cli, clindamycin], the MIC 50 in experiment [6] worked out at 16 µg/mL (≈ 37.6 µM).

Turning to `CC1(C)S[C@@H]2[C@H](NC(=O)[C@H](N)c3ccccc3)C(=O)N2[C@H]1C(=O)O` [Amp, ampicillin], the “QC MIC range” value in experiment [9] is “B (QC MIC range is 2-8) μg/ml”. Moreover, the MIC 50 in [6] was greater than 32 µg/mL.

With `C[C@H]1COc2c(N3CCN(C)CC3)c(F)cc3c(=O)c(C(=O)O)cn1c23` [Levo], the “MIC50 (15)” value in [8] (MRSA clinical isolates) came to 8 µg/mL (≈ 22.1 µM).

Regarding `CC[C@H]1OC(=O)[C@H](C)[C@@H](O[C@H]2C[C@@](C)(OC)[C@@H](O)[C@H](C)O2)[C@H](C)[C@@H](O[C@@H]2O[C@H](C)C[C@H](N(C)C)[C@H]2O)[C@](C)(O)C[C@@H](C)C(=O)[C@H](C)[C@@H](O)[C@]1(C)O` [Eryth], the “MIC50 (15)” value in experiment [8] (MRSA clinical isolates) stood at 64 µg/mL (≈ 87.2 µM).

Consider `C[C@H]1c2cccc(O)c2C(O)=C2C(=O)[C@]3(O)C(O)=C(C(N)=O)C(=O)[C@@H](N(C)C)[C@@H]3[C@@H](O)[C@@H]21` [Dox], for which, in experiment [8] (MRSA clinical isolates), the “MIC50 (15)” value was determined as 0.25 µg/mL (≈ 0.563 µM).

On to `Cc1onc(-c2ccccc2)c1C(=O)N[C@@H]1C(=O)N2[C@@H]1SC(C)(C)[C@@H]2C(=O)O` [Ox], for which the “MIC50 (15)” value in experiment [8] (MRSA clinical isolates) is greater than 16 µg/mL.

Take `CN[C@H](CC(C)C)C(=O)N[C@H]1C(=O)N[C@@H](CC(N)=O)C(=O)N[C@H]2C(=O)N[C@H]3C(=O)N[C@H](C(=O)N[C@H](C(=O)O)c4cc(O)cc(O)c4-c4cc3ccc4O)[C@H](O)c3ccc(c(Cl)c3)Oc3cc2cc(c3O[C@@H]2O[C@H](CO)[C@@H](O)[C@H](O)[C@H]2O[C@H]2C[C@](C)(N)[C@H](O)[C@H](C)O2)Oc2ccc(cc2Cl)[C@H]1O` [vancomycin]: in experiment [8] (clinical isolates of MRSA), the “bactericidal activity (MBC90 compared to MIC90)” value is recorded as “bactericidal”.

As for `CN(C)[C@@H]1C(O)=C(C(N)=O)C(=O)[C@@]2(O)C(O)=C3C(=O)c4c(O)cccc4[C@@](C)(O)[C@H]3C[C@@H]12` [Tetracycline], the MIC 50 in experiment [6] is 2 µg/mL (≈ 4.5 µM).

`O=[N+]([O-])[O-].[Ag+]` [silver nitrate]: the “MIC50 (15)” value in experiment [8] (setting [11]) came to 0.0025 µg/mL; in [8] (silver nitrate column) it was 0.00031 µg/mL. The “MIC50(26)” value in experiment [8] (setting [11]) is greater than 10 ng/mL; in [8] (silver nitrate column), 0.63 ng/mL. This molecule also came in with an MIC 90 in [8] (clinical isolates of MRSA) of 0.00063%.

Consider `CCC[C@@H]1C[C@@H](C(=O)N[C@@H]([C@H]2O[C@H](SC)[C@H](O)[C@@H](O)[C@H]2O)[C@H](C)Cl)N(C)C1` [clind], for which, in experiment [8] (MRSA clinical isolates), the “MIC50 (15)” value was greater than 64 µg/mL.

The values are drawn from US20160158179A1, “NANOEMULSION THERAPEUTIC COMPOSITIONS AND METHODS OF USING THE SAME” (THE REGENTS OF THE UNIVERSITY OF MICHIGAN, priority 2008, published 2016).
